# Results from ChEMBL document CHEMBL4613222 (Bioorg Med Chem, 2020).
# Activity calls are given as the source filed them. The rule behind the calls is not given here.
# Experiments:
# HCT-116 [1] = test: Effect on CCND1 gene expression in human HCT116 cells at 9.5 uM in presence of 2 Gy irradiation by RT-PCR analysis; type: functional, cell-based
# HCT-116 [2] = test: Down regulation of NFKappaB1 gene expression in human HCT116 cells at 35 uM under 2 Gy irradiation by RT-PCR analysis; type: functional, cell-based
# HCT-116 [3] = test: Down regulation of CCND1 gene expression in human HCT116 cells at 9.5 uM in presence of 2 Gy irradiation by RT-PCR analysis; type: functional, cell-based
# HCT-116 [4] = test: Down regulation of NFKappaB1 gene expression in human HCT116 cells at 9.5 uM by RT-PCR analysis relative to control; type: functional
# HCT-116 [5] = test: Antiproliferative activity against human HCT116 cells assessed as reduction in cell viability after 48 hrs by MTT assay; type: functional, cell-based; conditions: HCT-116, 48 h
# HCT-116 [6] = test: Radiosensitizer activity in human HCT116 cells assessed as reduction in cell survival at 4.75 uM incubated for 48 hrs under 2 to 6 Gy irradiation and measured after 7 days by crystal violet staining based by clonogenic assay; type: functional
smiles,measurement,setting,value
C[C@H]1[C@H](C)CC[C@]2(C(=O)O)CC[C@]3(C)C(=CC[C@@H]4[C@@]5(C)CC[C@H](O)C(C)(C)[C@@H]5CC[C@]43C)[C@H]12 [URSOLIC ACID],Activity,HCT-116 [1],inactive
same,Activity,HCT-116 [2],Active
same,Activity,HCT-116 [3],Active
same,fold change (FC),HCT-116 [4],-7.05
same,IC50,HCT-116 [5],19 µM
same,Activity,HCT-116 [6],Active
